Assay results as given in patent US20090181090A1, “Protein-Based Carrier System for Overcoming Resistance in Tumour Cells” (priority 2005, published 2009).
≈ marks a conversion by molar mass, not a printed value. Like-named read-outs stand apart in the source and are kept apart here.

Key:
UKF-NB3 Par. cells = assay: MTT cytotoxicity test, parental neuroblastoma cells; type: cell-based; settings: Homo sapiens, UKF-NB-3, 120 h, 5 days incubation
UKF-NB3 Dxr-R. cells = assay: MTT cytotoxicity test, doxorubicin-resistant neuroblastoma cells; type: cell-based, human; settings: 5 days incubation
Description: To test the cytotoxicity of the doxorubicin nanoparticles (Dxr-NP) produced, as compared to a doxorubicin solution (Dxr-Soln) and a liposomal doxorubicin preparation (CAELYX®), the following cell lines were used:
doxorubicin-resistant cells of the human neuroblastoma cell line of the Universitätsklinikum Frankfurt (UKF-NB3 Dxr-R.)
To determine the cytotoxicity, the MTT test was used. In this test the viability of the cells in the presence of different concentrations of a substance is determined and is then compared with a cell control. From the results, the IC50 value (inhibitory concentration 50), i.e. the concentration of a substance at which 50% of the cells die, can be calculated. […] After dissolving the crystals with SDS/DMF solution, the colour intensity can be measured photometrically. […]
One column of the wells contained pure medium and corresponded to the blank value; in a second column the cells for the growth control (100% value) were cultivated. […] After a further incubation at 37° C. overnight, the colour crystals had dissolved completely, and the colour intensity in each well was measured photometrically at […]. By subtracting the blank value from the measured values and with reference to the control, the cell viability can be expressed in percent.

Work on `COc1cccc2c1C(=O)c1c(O)c3c(c(O)c1C2=O)C[C@@](O)(C(=O)CO)C[C@@H]3O[C@H]1C[C@H](N)[C@H](O)[C@H](C)O1` [Dxr-Soln, doxorubicin] yielded an IC50 (UKF-NB3 Par. cells) of 0.0016 µg/mL (≈ 0.00294 µM), an IC50 (UKF-NB3 Dxr-R. cells) of 0.0535 µg/mL (≈ 0.0984 µM) and an IC50 (UKF-NB3 Dxr-R. cells; Homo sapiens, UKF-NB-3, 120 h, read-out: IC50) of 0.0535 µg/mL (≈ 0.0984 µM).
